# Laboratory results from PMC10002220, “In Vivo Reversal of P-Glycoprotein-Mediated Drug Resistance in a Breast Cancer Xenograft and in Leukemia Models Using a Novel, Potent, and Nontoxic Epicatechin EC31” (International Journal of Molecular Sciences, 2023).
# Like-named read-outs stand apart in the source and are kept apart here.
# How the values were obtained:
# [1] = system: LCC6MDR xenograft; test: In vivo efficacy in reversing PTX resistance in LCC6MDR tumor xenograft model; settings: for Doubling time: q2d x 14; for reduction in tumor volume compared to PTX alone / reduction in tumor weight compared to PTX alone: day 30
# Procedure: (A) In vivo toxicity study of EC31 alone and of its combination with PTX was conducted. BALB/c mice were randomized into five groups with five mice in each group. Body weight of BALB/c mice during treatments was measured every two days. The treatment groups included (1) solvent control (5% NMP + 5% Cremophor EL + 90% PBS to dissolve EC31 and 5% Ethanol + 5% Cremophor EL + 90% PBS to dissolve PTX), (2) PTX (12 mg/kg i.v.), (3) EC31 (30 mg/kg i.p.), (4) EC31 (30 mg/kg i.p.) + PTX (12 mg/kg i.v.), or (5) EC31 (60 mg/kg i.p.) + PTX (12 mg/kg i.v.). The administration was performed every other day 12 times (q2d x 12). The loss of body weight or appetite and treatment-related mortality were monitored and defined as toxicity. (B) BALB/c nude mice were subcutaneously xenografted with LCC6MDR. When the tumor reached 150–300 mm^3, the mice were randomized and administered once with (1) EC31 alone, (2) PTX alone, or (3) EC31 + PTX. […] The tumors were taken out, and their weights were measured. Intratumor concentration of EC31 or PTX was measured using UPLC-MS/MS, and the actual concentration of PTX or EC31 was normalized to the tumor weight. […] (C) BALB/c nude mice were subcutaneously xenografted with LCC6MDR. The treatment groups included (1) solvent, (2) PTX (12 mg/kg i.v.) alone, (3) cotreatment with EC31 (30 mg/kg i.p.) being injected 1 h prior to PTX (12 mg/kg i.v.) and with EC31 (30 mg/kg i.p.) then being given in a second injection 5 h post-PTX injection, and (4) cotreatment with EC31 (60 mg/kg i.p.) being injected 1 h prior to PTX injection (12 mg/kg i.v.). Tumor volume and body weight were monitored throughout the treatment period. There were 8 mice in each treatment group. Treatments were given as indicated by the arrows. […] At the end of LCC6MDR xenograft efficacy study (day 30), all tumors were dissected. The tumor volume, tumor weight, and doubling time were measured. The number of animal deaths was recorded during the treatment period. Statistical analysis on tumor volumes of different treatment groups was done by performing two-way ANOVA with Dunnett’s multiple comparison test after treatment period. * represents p < 0.05, ** represents p < 0.01, and *** represents p < 0.001. […] No measure is printed with it.
# Here, we tested whether EC31 could reverse P-gp-mediated PTX resistance in the LCC6MDR xenograft model (Figure 5C). The treatment was given every other day 14 times (q2d x 14) from day 0 to day 26.
# The LCC6MDR tumor xenograft model was studied as it was previously. About 1 × 10^6 cells of LCC6MDR cells were inoculated subcutaneously (s.c.) into the rear flank of a female BALB/c nude mouse (4–6 weeks old). When a tumor of 200–250 mm^3 was formed, it was removed and cut into cubes of 1 mm^3 and was xenografted s.c. into the rear flank of another female BALB/c nude mouse. Treatments started when the tumor reached 100 mm^3. […] Tumor growth was measured with an electronic caliper on the injection day, and the tumor volume was calculated as reported previously.
# [2] = biological target: P-gp (Homo sapiens, UniProt P08183); set-up: expressed in transfected cells; host or cells: MDA435/LCC6MDR (human breast cancer line, gift of Dr. Robert Clarke); settings: Cpds at 1 μM; IC50 of PTX without/with modulator; cited from earlier work
# Sequence of P-gp (Homo sapiens, UniProt P08183) (P08183 whole entry): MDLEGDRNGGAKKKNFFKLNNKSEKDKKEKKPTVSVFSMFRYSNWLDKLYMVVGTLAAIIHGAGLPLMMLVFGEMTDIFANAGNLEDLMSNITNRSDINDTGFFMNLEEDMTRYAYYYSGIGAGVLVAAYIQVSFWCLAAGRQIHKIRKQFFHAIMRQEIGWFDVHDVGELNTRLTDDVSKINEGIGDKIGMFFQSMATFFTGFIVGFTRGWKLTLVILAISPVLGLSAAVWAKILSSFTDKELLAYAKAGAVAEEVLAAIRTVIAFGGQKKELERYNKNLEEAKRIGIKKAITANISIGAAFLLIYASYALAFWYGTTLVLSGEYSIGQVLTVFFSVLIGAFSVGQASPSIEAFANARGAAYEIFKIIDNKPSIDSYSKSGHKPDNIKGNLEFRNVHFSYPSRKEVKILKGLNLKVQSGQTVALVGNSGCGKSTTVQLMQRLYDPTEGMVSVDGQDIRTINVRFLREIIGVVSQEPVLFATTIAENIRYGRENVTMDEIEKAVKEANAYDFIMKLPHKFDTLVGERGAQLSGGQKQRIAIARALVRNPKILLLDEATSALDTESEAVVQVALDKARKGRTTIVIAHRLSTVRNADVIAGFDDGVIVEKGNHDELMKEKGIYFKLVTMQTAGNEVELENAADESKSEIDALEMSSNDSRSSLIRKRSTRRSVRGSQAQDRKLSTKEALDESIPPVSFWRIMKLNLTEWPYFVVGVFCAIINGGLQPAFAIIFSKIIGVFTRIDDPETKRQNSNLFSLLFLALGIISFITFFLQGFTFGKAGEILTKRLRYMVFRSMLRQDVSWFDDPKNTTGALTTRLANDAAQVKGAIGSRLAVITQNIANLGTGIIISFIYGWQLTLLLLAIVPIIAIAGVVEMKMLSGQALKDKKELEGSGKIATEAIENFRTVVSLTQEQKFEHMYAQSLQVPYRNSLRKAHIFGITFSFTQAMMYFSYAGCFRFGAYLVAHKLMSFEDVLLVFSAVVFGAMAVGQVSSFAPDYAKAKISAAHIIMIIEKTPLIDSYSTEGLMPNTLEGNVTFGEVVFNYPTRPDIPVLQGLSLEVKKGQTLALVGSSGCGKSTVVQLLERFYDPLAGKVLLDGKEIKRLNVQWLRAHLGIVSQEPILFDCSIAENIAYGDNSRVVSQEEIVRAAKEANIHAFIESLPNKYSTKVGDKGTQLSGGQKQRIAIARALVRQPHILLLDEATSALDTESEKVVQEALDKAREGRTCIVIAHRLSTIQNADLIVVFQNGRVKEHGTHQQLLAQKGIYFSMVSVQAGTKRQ
# [3] = system: P-gp; test: EC50 for reversing drug resistance in P388ADR cells (cell proliferation assay)
# [4] = system: K562/P-gp cells; test: EC31 efflux in K562/P-gp cells; assay type: cell-based, human; settings: after 150 min of efflux, preincubated with 1 µM
# Procedure: (§1) N = 3 independent experiments.
# (§2) After incubation, the medium was removed, and cells were washed with cold PBS twice. To the cell pellet, 300 μL of acetonitrile was added. The cells were sonicated for 10 min at 50 Hz using Intertek-CD-3800(A) sonicator. The lysed cells were then spun at 14,000 rpm for 10 min at room temperature. The supernatant containing EC31 was saved and was filtered with 0.45 µm syringe filter before UPLC-MS/MS analysis. For the efflux assay, the cells were preincubated with 1 μM EC31 at 37 °C for 2.5 h. The cells were then washed with PBS, were resuspended in drug-free medium, and were further incubated at 37 °C. The cells were collected at 0, 30, 60, and 150 min, respectively. The intracellular EC31 at different time points was analyzed as described in the Section 4.9.
# [5] = system: K562 cells; test: EC31 efflux in K562 cells; assay type: cell-based, human; settings: after 150 min of efflux, preincubated with 1 µM
# Procedure: as §1, §2
# [6] = group 3: EC31 30 mg/kg + PTX + EC31 30 mg/kg
smiles,measurement,setting,value
COc1cc(OC)c2c(c1)O[C@H](c1ccc(OC)c(OC)c1)[C@H](OC(=O)c1ccc(F)c(NC(=O)c3cc(OC)c(OC)c(OC)c3)c1)C2 [EC31],Doubling time,[1]; EC31 30 mg/kg i.p. (−1 h) + PTX 12 mg/kg i.v. + EC31 30 mg/kg i.p. (+5 h),15.0 days
same,Doubling time,[1]; EC31 60 mg/kg i.p. (−1 h) + PTX 12 mg/kg i.v.,12.4 days
same,reduction in tumor volume compared to PTX alone,[1]; [6],1.6 fold
same,reduction in tumor weight compared to PTX alone,[1]; [6],1.5 fold
same,reduction in tumor volume compared to PTX alone,[1]; group 4: EC31 60 mg/kg + PTX,1.4 fold
same,reduction in tumor weight compared to PTX alone,[1]; group 4: EC31 60 mg/kg + PTX,1.4 fold
same,LCC6MDR P-gp-modulating activity RF (relative fold),[2],69.3
same,EC50,"[3]; read-out: EC50 for Reversing MDR, DOX Resistance, P388ADR, concentration that reduces IC50 of DOX by half",186 ± 31 nM
same,EC50,"[3]; read-out: EC50 for Reversing MDR, PTX Resistance, P388ADR, concentration that reduces IC50 of PTX by half",249 ± 18 nM
same,EC31 remaining in cells,[4],~16%
same,EC31 remaining in cells,[5],about 23%
